Experimental data: patent US20130210907A1, “METHOD FOR PREVENTING OR TREATING ENTEROCHROMAFFIN CELL HYPERPLASIA-RELATED DISEASES BY QUERCETIN ADMINISTRATION” (HONG KONG BAPTIST UNIVERSITY, priority 2012, published 2013)

Experiments:
PI-IBS rats [1] = assay: Mechanical stimuli (CRD)-induced 5-HT release: colonic 5-HT content with or without CRD; format: in vivo, rat; conditions: for 5-HT content of tissue, +CRD: after CRD; for 5-HT content of tissue, -CRD: without CRD; for Decrease of colon tissue 5-HT content after CRD application: not significant
Protocol: (§1) 5-HT content in the colon tissue is assayed based on our previously reported procedure in Qi S D, Tian S L, Xu H X, Sung J J, Bian Z X. Quantification of luminally released serotonin in rat proximal colon by capillary electrophoresis with laser-induced fluorescence detection. Anal Bioanal Chem. 2009 April; 393(8):2059-66. Briefly, the colon segment is homogenized in 15% iced trichloroacetic acid; for 2 min and stored at 4° C. for 2 h. After centrifuge at 10,000 G for 15 min, the supernatant of each sample is filtered using 0.22 μm filters and extracted with diethyl ether for five times to remove the trichloroacetic acid. The prepared samples are added to derivatization solution (150 mM sodium tetraborate, 25% acetonitrile, 2 mM CFSE) and incubated for […] in dark at room temperature. The 5-HT content is analyzed by capillary electrophoresis with laser-induced fluorescence detection and expressed as nanogram per milligram (wet weight of tissue).
To determine whether mechanical stimuli (CRD) can induce colonic 5-HT release in PI-IBS rats, and whether Quercetin has effect on it, 5-HT content in colonic tissue is evaluated in rats with or without AWR test. The colon tissues for 5-HT content determination are collected from the rats from Example 1 and Example 2, and the methods for 5-HT content determination are followed as described in Example 2.

PI-IBS rats [2] = assay: Electron microscopy of EC cell secretory granules after CRD; format: in vivo, rat; conditions: median dose
Protocol: For electron microscopy evaluation, the colon tissues are collected from the rats treated with AWR test so as to investigate the feature of mechanical stimulus-induced 5-HT release. Colon segment is fixed for 24 h at 4° C. in fixative containing 4% paraformaldehyde and 0.2% picric acid in 0.1M PB, then washed and embedded in gelatin. Thin sections are cut and picked up on 200-mesh grids. The sections are stained with uranyl acetate and lead citrate. Examination and photography of sections are carried out using Philips CM 10 transmission electron microscope (Philips Scientifics, Netherlands). At the ultra-structural level, EC cell are distinguished from other enteroendocrine cells by the pleomorphic nature of their secretory granules. The EC cells in which there are many clear secretory granules without cores and granules with eccentric cores are considered as the activated one with excessive 5-HT release.

QGP-1 cells [3] = assay: Cytotoxicity by lactate dehydrogenase (LDH) release; format: cell-based, human; conditions: QGP-1, 25-100 μM, 24 h
Protocol: The cytotoxicity of Quercetin is determined by lactate dehydrogenase (LDH) assay in QGP-1 cells. Cells are seeded at a density of 5,000 cells/well into 96-well plates and incubated with Quercetin (0-100 μM, 0.01% DMSO) for 24 h. Release of cytoplasmic enzyme lactate dehydrogenase is measured after incubation by using colorimetric assay kit (Roche Molecular Biochemicals, Germany) according to the manufacturer's instructions.

PI-IBS rats [4] = assay: Colonic tissue 5-HT content (capillary electrophoresis, laser-induced fluorescence); format: in vivo, rat; conditions: for 5-HT content: PI-IBS rats, colon
Protocol: Six groups of 5 rats are tested. The groups setting and treatments are as described in Example 1. Different from Example 1, AWR test are not applied to the rats in this experiment in order to obtain the basal data without CRD stimulus. After the last drug administration, a 6 cm proximal colon (1-2 cm from caecum) is collected and divided into 3 parts, the proximal is fixed in 4% paraformaldehyde and embedded in paraffin for EC cell staining; the middle part is collected for 5-HT content measurement and electron microscopic evaluation, and the distal part is for western blotting analysis.
as §1

QGP-1 cells [5] = assay: Sub-G0/G1 fraction by flow cytometry; format: cell-based, human; conditions: QGP-1, 25~100 μM, 24 h
Protocol: QGP-1 cells are seeded at a density of 10×10^4 cells/ml and pre-incubated overnight. After incubation with or without Quercetin (0-100 μM) for 24 h, cells are harvested by trypsinization and fixed in 70% ethanol at 4° C. overnight. The cells are centrifuged to remove ethanol and washed twice using ice-cold PBS. The cell pallets are resuspended in 500 n1 propidium iodide solution (0.1% Triton X-100, 50 μg/ml propidium iodide in PBS) containing 50 μg/ml RNase and incubated at 37° C. for 30 min and protected from the light. The DNA content of 10,000 cells is detected by BD FASCanto Flow Cytometry and analyzed using CellFit software (Becton Dickinson, Heidelberg, Germany). The data are representative of those obtained in at least three experiments.
For flow cytometric analysis, cells with sub-G0/G1 DNA content are stained with propidium iodide, and the methods are as described in section 2 of Example 8. […] Based on the results form LDH assay and apoptosis detection, Quercetin indeed has cytotoxicity and can further induce cell apoptosis.

normal rats = assay: Colonic EC cell density in normal rats; format: in vivo, rat; conditions: 10 mg/kg i.g., 14 days
Protocol: Tissue sections (5-μm thick) are deparaffinized and rehydrated for silver staining. Briefly, sections are incubated with 5% ammoniacal silver solution for 4 h at room temperature, then 2 h in 56° C. and subsequently 12 h at room temperature in a dark humidified chamber. After rinsing with water, 5% sodium hyposulfite is added and the tissue sections are incubated for 5 min at room temperature. The brown to black silver precipitate in the cytoplasm of EC cells represents as a positive reaction. A researcher blinded to treatment counted 5 random fields at 200× magnifications for each section, and the number of EC cells per mm^2 of mucosa is quantified using Image J NIH software.
To identify whether the effects of Quercerin in PI-IBS rats are specific, pain threshold pressure, colonic EC cell number and 5-HT content are further evaluated in normal rats treated with Quercetin. Briefly, Quercetin at the dose of 10 mg/kg is administered to normal rats orally for 14 days. After the final drug administration, pain threshold pressure, colonic EC cell density and 5-HT content are evaluated and the methods used here are as same as that shown in above experiments.

O=c1c(O)c(-c2ccc(O)c(O)c2)oc2cc(O)cc(O)c12 [Quercetin, 2-(3,4-dihydroxyphenyl)-3,5,7-trihydroxy-4H-chromen-4-one]
5-HT content of tissue, +CRD (PI-IBS rats [1]; 5 mg/kg i.g.): 4.96 ± 0.91^ ng/mg | 5-HT content of tissue, -CRD (PI-IBS rats [1]; 5 mg/kg i.g.): 5.15 ± 0.58 ng/mg | 5-HT content of tissue, +CRD (PI-IBS rats [1]; 10 mg/kg i.g.): 4.29 ± 0.58^ ng/mg | 5-HT content of tissue, -CRD (PI-IBS rats [1]; 10 mg/kg i.g.): 4.63 ± 0.92 ng/mg | 5-HT content of tissue, +CRD (PI-IBS rats [1]; 20 mg/kg i.g.): 4.01 ± 1.14 ng/mg | 5-HT content of tissue, -CRD (PI-IBS rats [1]; 20 mg/kg i.g.): 5.50 ± 0.65^ ng/mg | Decrease of colon tissue 5-HT content after CRD application (PI-IBS rats [1]; low dose): ~3.67% | Decrease of colon tissue 5-HT content after CRD application (PI-IBS rats [1]; median dose): ~7.34% | Secretory granules of EC cells compared to PI-IBS rats (electron micrographs) (PI-IBS rats [2]): became denser | LDH release (QGP-1 cells [3]): significant and dose-dependent increase | 5-HT content (PI-IBS rats [4]; 5 mg/kg i.g.): 5.15 ± 0.58 ng/mg | 5-HT content (PI-IBS rats [4]; 10 mg/kg i.g.): 4.63 ± 0.92 ng/mg | 5-HT content (PI-IBS rats [4]; 20 mg/kg i.g.): 5.50 ± 0.65^ ng/mg | Decrease of 5-HT content compared with the PI-IBS group (PI-IBS rats [4]; low dose (5 mg/kg)): 28% | Decrease of 5-HT content compared with the PI-IBS group (PI-IBS rats [4]; median dose (10 mg/kg)): 35% | Sub-G0/G1 fraction (QGP-1 cells [5]): concentration-dependently increases | EC cell density (normal rats): 91 ± 10 Number/mm^2
